# pIC50: −log10 of the molar value.
# Legend:
# [1] = target: T1, ATP-dependent translocase ABCB1 (Homo sapiens, UniProt P08183); assay: TP_TRANSPORTER: transepithelial transport (basal to apical) in Caco-2 cells; type: functional, cell-based
# [2] = target: T1, ATP-dependent translocase ABCB1; assay: TP_TRANSPORTER: inhibition of Rhodamine 123 transepithelial transport (basal to apical) (Rhodamine 123: 5 uM) in Caco-2 cells; type: functional, cell-based
# T1 sequence (P08183 whole entry): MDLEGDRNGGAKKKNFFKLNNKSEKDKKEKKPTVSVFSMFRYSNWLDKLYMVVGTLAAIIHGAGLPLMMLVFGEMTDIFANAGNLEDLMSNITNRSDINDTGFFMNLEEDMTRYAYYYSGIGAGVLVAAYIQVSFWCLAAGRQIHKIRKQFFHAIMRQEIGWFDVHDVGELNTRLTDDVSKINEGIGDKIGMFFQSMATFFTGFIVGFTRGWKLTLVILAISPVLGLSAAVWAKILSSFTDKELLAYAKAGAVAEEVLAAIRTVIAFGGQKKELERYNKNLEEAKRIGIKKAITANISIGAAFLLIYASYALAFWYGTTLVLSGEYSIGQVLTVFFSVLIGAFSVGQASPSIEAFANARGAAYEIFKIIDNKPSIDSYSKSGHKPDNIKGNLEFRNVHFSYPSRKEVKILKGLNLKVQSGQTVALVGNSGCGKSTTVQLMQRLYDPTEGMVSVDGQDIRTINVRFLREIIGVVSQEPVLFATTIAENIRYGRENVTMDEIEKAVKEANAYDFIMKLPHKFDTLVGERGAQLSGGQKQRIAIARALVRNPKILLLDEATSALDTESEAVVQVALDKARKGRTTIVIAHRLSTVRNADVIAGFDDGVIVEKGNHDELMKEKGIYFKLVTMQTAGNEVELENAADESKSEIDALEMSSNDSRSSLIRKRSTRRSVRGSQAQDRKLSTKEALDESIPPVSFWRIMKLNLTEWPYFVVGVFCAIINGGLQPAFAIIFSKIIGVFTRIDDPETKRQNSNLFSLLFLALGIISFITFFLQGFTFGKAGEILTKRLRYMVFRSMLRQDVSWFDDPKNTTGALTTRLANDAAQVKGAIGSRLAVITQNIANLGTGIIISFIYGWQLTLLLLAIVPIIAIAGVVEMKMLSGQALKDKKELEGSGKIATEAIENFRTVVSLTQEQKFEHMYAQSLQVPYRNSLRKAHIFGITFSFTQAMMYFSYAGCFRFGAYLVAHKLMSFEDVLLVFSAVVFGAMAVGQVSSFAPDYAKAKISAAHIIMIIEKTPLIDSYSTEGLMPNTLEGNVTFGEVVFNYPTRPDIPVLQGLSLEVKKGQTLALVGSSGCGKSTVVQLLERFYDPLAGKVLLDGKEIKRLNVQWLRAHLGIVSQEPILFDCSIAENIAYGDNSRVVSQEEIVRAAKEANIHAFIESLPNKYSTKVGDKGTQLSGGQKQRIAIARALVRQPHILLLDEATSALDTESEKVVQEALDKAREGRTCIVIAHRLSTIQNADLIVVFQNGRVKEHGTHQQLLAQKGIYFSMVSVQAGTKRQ
smiles,measurement,setting,value
CCC(=O)C(CC(C)N(C)C)(c1ccccc1)c1ccccc1 (configuration not stated) [METHADONE],Activity,[1],is not a substrate [-]
same,pIC50,[2],5.12

# Reference: ChEMBL document CHEMBL2073747, “Methadone inhibits rhodamine123 transport in Caco-2 cells” (Drug Metab Dispos, 2001)
